Measurements reported in patent US8242289B2, “Alkyl-substituted tetrahydropyrans as flavoring substances” (SYMRISE AG, priority 2009, dated 2012).

Assay: Sensory comparison of flavored products with the flavor not according to the invention
Assay type: in vivo

For `CCC1OC(C)(CC)CCC1C(C)C` (stereo not shown) [2,6-diethyl-5-isopropyl-2-methyl-tetrahydropyran], the feeling of freshness (standard chewing gum (Example 2.12), 2% flavor composition) was “more intense feeling of freshness”, the “fullness in the mouth” value (standard chewing gum (Example 2.12), 2% flavor composition, in particular at the start of chewing) was “greater fullness in the mouth” and the boost effect (sugar-free chewing gum (Example 2.11), 1% cinnamon type cool flavor) was “distinct “boost effect””. For the same compound, the feeling of freshness (sugar-free chewing gum (Example 2.11), 1% flavor composition, in particular initial phase of consumption) was “more intense feeling of freshness”, the “feeling in the mouth” value (toothpaste 'silica opaque' (Example 2.15), 1% flavor composition) was “fresher feeling in the mouth” and the “fullness in the mouth” value (toothpaste 'silica opaque' (Example 2.15), 1% flavor composition, during brushing) was “increased fullness in the mouth”. The feeling of freshness (toothpaste, phosphate base (Example 2.13), 1% flavor composition, in particular at the start of brushing) was “distinct feeling of freshness”, the “effect of the flavor when brushing” value (toothpaste, phosphate base (Example 2.13), 1% spearmint type flavor) was “intensified effect of the flavor when brushing” and the retronasal cooling (toothpaste, transparent gel (Example 2.14), 1% flavor composition) was “distinct retronasal cooling”. The freshness profile (toothpaste, transparent gel (Example 2.14), 1% flavor composition, during brushing) was “clearer freshness profile”.
